Results as given in ChEMBL document CHEMBL1201862, “PubChem BioAssay data set” (2004).
The source made the active and inactive calls.

How the values were obtained:
[1] = molecular target: T1, Estrogen receptor (Homo sapiens, UniProt P03372);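 also: potency for inhibiting coactivator peptide recruitment to the receptor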
T1 sequence (P03372 whole entry): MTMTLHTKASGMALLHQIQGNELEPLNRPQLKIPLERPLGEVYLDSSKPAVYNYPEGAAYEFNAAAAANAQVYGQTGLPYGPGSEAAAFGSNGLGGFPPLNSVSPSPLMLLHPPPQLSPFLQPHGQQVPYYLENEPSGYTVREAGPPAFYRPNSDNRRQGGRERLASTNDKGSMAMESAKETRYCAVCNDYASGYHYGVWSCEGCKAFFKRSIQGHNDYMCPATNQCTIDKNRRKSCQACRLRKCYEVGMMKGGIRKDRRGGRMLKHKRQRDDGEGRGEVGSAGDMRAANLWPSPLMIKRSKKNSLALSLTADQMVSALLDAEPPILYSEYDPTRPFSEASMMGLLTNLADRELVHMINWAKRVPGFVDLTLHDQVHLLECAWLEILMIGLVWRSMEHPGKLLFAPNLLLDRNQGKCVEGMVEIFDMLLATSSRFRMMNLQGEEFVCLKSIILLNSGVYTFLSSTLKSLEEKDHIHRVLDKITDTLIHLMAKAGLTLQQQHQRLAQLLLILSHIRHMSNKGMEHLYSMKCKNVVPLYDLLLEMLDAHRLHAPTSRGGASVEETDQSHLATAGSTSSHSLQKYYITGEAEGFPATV

[2] = molecular target: T2, Carboxy-terminal domain RNA polymerase II polypeptide A small phosphatase 1 (Homo sapiens, UniProt Q9GZU7); assay: CTDSP1 inhibitors, concentration-response, biochemical, absorbance readout, ultra-high-throughput screen actives (AID 540297); assay type: functional
T2 sequence (Q9GZU7 whole entry): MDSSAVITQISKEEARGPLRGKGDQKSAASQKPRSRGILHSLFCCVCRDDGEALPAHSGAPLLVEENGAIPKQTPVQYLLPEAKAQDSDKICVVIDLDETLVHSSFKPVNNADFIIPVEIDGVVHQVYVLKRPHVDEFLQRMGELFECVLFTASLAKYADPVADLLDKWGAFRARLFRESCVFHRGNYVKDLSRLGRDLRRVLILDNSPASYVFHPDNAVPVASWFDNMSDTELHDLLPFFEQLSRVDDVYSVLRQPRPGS

[3] = molecular target: Voltage-dependent T-type calcium channel subunit alpha-1H (Homo sapiens, UniProt O95180); assay type: functional;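 also: channel activity triggered by adding a high calcium stimulation buffer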
Voltage-dependent T-type calcium channel subunit alpha-1H, sequence (O95180 whole entry): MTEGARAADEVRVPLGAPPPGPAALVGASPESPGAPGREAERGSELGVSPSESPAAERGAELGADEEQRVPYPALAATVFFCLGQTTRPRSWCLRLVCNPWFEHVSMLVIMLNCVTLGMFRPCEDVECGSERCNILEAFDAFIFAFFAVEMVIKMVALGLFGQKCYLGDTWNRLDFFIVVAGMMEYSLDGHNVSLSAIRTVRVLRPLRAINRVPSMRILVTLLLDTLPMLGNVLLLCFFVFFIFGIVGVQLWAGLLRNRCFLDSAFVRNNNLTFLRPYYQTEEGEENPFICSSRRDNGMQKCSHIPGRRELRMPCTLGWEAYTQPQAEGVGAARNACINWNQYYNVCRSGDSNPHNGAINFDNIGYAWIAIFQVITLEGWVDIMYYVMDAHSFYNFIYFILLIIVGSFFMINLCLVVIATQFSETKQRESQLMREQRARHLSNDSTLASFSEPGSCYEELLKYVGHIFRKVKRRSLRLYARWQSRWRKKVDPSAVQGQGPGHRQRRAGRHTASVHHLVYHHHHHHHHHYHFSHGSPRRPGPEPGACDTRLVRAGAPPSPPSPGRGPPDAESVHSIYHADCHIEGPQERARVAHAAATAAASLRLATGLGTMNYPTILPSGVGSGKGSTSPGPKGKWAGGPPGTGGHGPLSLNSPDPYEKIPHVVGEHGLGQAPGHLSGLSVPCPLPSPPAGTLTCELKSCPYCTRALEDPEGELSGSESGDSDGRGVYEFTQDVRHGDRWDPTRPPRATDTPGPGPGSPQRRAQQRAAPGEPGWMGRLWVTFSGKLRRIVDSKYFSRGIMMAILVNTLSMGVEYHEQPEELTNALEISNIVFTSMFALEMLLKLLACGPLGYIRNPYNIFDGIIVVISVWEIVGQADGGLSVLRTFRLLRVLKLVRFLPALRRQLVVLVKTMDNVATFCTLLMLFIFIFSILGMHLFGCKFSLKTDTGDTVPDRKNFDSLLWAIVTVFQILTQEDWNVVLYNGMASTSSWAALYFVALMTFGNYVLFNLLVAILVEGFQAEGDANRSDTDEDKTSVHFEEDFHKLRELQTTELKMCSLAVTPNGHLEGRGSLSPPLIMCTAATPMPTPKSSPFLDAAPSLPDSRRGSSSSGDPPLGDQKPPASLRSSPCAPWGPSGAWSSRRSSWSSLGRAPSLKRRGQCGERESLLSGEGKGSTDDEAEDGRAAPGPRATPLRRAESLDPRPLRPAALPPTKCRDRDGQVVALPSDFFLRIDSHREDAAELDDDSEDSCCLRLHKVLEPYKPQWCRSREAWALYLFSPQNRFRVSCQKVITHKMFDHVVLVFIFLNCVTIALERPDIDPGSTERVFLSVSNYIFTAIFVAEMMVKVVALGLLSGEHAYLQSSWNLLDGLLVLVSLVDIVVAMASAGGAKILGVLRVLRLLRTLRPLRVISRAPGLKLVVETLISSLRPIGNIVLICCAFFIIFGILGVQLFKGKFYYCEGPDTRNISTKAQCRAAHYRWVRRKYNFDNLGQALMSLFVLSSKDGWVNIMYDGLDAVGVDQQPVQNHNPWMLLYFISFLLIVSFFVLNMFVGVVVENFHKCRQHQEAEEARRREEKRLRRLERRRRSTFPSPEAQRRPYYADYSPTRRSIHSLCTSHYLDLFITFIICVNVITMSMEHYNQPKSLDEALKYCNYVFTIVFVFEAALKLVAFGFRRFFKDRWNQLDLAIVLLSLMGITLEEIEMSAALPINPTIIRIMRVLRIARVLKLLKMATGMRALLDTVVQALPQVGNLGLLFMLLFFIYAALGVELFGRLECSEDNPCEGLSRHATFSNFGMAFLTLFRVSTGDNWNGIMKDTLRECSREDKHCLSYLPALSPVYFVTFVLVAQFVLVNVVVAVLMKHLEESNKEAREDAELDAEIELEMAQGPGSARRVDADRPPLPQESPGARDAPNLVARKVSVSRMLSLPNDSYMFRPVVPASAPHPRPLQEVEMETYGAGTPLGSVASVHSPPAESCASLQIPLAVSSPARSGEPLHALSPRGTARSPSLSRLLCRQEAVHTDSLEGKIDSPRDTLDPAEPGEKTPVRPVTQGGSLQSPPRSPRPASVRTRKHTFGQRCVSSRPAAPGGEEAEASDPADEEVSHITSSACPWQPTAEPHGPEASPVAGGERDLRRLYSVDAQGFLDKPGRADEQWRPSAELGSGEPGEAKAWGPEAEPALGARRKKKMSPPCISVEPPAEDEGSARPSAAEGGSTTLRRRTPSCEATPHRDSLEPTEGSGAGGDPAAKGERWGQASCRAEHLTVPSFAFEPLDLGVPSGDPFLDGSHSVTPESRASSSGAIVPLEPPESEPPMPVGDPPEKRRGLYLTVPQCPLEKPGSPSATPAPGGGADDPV

[4] = molecular target: Intestinal-type alkaline phosphatase (Homo sapiens, UniProt P09923); assay: activation of human intestinal alkaline phosphatase – biochemical, dose response (AID 488873); assay type: functional
Intestinal-type alkaline phosphatase (Homo sapiens, UniProt P09923), sequence (P09923 whole entry): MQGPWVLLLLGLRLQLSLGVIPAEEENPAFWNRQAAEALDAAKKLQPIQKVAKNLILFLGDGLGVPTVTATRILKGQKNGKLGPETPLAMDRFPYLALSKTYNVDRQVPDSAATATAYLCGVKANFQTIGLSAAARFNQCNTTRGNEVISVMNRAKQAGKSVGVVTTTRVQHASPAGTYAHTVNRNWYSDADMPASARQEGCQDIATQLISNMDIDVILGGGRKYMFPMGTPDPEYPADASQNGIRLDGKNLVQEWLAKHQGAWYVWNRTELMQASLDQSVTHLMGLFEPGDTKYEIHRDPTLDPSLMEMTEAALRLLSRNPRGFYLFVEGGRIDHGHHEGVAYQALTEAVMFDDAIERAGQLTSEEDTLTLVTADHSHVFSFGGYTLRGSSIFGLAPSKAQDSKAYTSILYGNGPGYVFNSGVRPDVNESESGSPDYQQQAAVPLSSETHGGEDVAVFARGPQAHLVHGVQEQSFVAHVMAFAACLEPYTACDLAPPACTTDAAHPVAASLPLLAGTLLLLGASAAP

[5] = molecular target: T3, Alkaline phosphatase, tissue-nonspecific isozyme (Homo sapiens, UniProt P05186); assay: TNAP enzyme inhibition by screening hits, dose response, selectivity assay for mouse IAP inhibitor project, biochemical, human TNAP, uHTS hits (AID 488906); assay type: functional
T3 sequence (P05186 whole entry): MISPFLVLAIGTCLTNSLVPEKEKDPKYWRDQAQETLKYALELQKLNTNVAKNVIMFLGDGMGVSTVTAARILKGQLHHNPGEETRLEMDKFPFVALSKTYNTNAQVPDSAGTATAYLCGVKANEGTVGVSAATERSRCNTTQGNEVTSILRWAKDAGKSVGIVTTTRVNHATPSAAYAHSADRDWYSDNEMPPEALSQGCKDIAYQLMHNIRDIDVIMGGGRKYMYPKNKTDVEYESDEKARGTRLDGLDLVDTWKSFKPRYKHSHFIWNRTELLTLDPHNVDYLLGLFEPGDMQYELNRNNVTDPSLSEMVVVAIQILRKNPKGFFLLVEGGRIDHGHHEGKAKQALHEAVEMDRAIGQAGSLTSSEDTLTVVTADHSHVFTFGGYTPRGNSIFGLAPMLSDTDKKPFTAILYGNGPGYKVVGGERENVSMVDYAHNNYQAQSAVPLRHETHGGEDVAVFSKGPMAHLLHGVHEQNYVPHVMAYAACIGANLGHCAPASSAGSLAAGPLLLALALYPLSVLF

[6] = molecular target: Intestinal-type alkaline phosphatase (Mus musculus, UniProt P24822); assay: PubChem AID 488785; assay type: functional
Intestinal-type alkaline phosphatase (Mus musculus, UniProt P24822), sequence (P24822 whole entry): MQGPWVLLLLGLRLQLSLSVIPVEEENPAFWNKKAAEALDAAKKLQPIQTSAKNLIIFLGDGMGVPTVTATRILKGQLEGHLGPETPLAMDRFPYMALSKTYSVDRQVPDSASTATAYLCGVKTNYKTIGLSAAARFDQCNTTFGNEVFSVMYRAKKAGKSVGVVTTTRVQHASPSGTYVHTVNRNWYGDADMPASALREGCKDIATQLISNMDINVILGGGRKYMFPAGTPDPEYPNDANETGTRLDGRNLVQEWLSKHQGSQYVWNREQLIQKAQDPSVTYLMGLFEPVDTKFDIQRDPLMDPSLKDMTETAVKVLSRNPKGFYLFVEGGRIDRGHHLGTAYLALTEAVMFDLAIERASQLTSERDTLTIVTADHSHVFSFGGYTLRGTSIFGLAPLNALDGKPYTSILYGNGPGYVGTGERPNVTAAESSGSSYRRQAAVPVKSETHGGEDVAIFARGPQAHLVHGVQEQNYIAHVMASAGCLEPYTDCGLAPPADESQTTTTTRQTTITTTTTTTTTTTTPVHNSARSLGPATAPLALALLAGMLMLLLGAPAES

[7] = system: Vero; assay: cells; assay type: functional; conditions: Chlorocebus sabaeus
[8] = system: HEK293; assay: cells; assay type: functional, cell-based; conditions: Homo sapiens
[9] = system: HEK293; assay: inhibition of NOD1-driven NF-kB reporter – cell-based, luminescence, uHTS, primary screen (AID 1578); assay type: functional; conditions: Homo sapiens
[10] = system: HEK293; assay: cells; assay type: functional, cell-based; conditions: Homo sapiens; remark: listed apart in the source
[11] = system: HEK293; assay: NOD2 signaling inhibitors in MDP-stimulated cells, cell-based, uHTS, luminescence (AID 2001); assay type: functional; conditions: Homo sapiens
[12] = viability of HCT116 lacking mutant beta-catenin – cell-based, human colon tumor, dose response (AID 1045); assay type: functional;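 also: HCT116 colon tumor cells with beta catenin knocked out; cells exposed to compound for 60 hours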
[13] = viability of PTEN-deleted HCT116 cells – cell-based, HCT116 PTEN knockout, dose response (AID 1047); assay type: functional;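 also: HCT116 colon tumor cells with PTEN knocked out; cells exposed to compound for 60 hours before readout; potency for loss of cell viability measured by luminescence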
[14] = system: INS1; assay: INS-1E survival protection against cytokine death – cell-based, luminescence, retest, dose response (AID 449756); assay type: functional; conditions: Rattus norvegicus;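 also: cell death triggered by IL-1 beta plus TNF-alpha plus IFN-gamma mixture; protective hits raise ATP signal compared with cytokine alone wells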
[15] = molecular target: T4, Caspase-3 (Homo sapiens, UniProt P42574); assay type: functional;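 also: Dose-response selectivity test against caspase-3 for candidate inhibitors of sentrin-specific proteases (SENPs)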
T4 sequence (P42574 whole entry): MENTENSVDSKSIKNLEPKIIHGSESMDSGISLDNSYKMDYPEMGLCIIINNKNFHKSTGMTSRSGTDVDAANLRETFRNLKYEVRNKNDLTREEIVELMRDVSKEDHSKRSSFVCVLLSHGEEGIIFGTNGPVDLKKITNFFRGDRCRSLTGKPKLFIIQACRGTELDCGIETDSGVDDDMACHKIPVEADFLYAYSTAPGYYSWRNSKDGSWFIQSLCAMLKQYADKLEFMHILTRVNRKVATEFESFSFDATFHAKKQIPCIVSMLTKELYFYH

[16] = molecular target: T5, Sentrin-specific protease 8 (Homo sapiens, UniProt Q96LD8); assay type: functional;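 also: luminescence read-out of SENP8 inhibition, dose-response confirmation following an ultra-high-throughput screen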
T5 sequence (Q96LD8 whole entry): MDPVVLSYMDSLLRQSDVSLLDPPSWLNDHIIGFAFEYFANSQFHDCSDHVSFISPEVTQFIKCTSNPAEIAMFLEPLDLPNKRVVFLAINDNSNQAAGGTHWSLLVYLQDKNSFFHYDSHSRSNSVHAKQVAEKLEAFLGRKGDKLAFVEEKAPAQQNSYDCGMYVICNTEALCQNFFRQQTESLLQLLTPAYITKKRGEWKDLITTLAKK

[17] = molecular target: T6, Sentrin-specific protease 6 (Homo sapiens, UniProt Q9GZR1); assay type: functional;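 also: Luminescence-based dose-response confirmatory assay of SENP6 inhibition, following up an ultra-high-throughput screen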
T6 sequence (Q9GZR1 whole entry): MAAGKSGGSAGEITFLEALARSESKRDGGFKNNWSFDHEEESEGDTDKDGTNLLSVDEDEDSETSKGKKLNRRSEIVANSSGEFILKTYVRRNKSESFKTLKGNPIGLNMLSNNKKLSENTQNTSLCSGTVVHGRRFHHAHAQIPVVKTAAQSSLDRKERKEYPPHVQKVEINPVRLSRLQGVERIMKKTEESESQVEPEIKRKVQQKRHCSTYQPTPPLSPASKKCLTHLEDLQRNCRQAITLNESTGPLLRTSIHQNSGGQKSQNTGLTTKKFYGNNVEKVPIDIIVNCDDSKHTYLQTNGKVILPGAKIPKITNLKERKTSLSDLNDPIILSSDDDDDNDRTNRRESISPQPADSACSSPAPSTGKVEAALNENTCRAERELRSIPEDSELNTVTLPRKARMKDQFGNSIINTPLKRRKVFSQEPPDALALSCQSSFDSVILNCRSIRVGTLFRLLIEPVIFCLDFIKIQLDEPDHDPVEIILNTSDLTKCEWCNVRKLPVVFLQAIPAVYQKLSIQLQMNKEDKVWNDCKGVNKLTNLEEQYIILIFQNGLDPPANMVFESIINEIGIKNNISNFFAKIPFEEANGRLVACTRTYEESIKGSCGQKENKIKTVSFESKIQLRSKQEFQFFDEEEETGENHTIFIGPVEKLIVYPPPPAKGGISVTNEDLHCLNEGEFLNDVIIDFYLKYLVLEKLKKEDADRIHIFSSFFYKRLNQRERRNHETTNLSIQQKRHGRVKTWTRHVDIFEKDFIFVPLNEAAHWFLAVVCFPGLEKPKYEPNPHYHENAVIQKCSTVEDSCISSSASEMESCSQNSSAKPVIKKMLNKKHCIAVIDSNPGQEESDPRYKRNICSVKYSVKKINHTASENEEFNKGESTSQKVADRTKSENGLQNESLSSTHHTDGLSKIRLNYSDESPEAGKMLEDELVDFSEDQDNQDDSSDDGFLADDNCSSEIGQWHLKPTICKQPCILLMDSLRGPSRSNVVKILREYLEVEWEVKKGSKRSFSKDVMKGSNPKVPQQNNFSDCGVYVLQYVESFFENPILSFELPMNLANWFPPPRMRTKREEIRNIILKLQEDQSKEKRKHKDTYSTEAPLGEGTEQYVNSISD

[18] = molecular target: T7, Sentrin-specific protease 7 (Homo sapiens, UniProt Q9BQF6); assay type: functional;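 also: Luminescence-based dose-response confirmation of ultra-high-throughput screening hits, measuring inhibition of SENP7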
T7 sequence (Q9BQF6 whole entry): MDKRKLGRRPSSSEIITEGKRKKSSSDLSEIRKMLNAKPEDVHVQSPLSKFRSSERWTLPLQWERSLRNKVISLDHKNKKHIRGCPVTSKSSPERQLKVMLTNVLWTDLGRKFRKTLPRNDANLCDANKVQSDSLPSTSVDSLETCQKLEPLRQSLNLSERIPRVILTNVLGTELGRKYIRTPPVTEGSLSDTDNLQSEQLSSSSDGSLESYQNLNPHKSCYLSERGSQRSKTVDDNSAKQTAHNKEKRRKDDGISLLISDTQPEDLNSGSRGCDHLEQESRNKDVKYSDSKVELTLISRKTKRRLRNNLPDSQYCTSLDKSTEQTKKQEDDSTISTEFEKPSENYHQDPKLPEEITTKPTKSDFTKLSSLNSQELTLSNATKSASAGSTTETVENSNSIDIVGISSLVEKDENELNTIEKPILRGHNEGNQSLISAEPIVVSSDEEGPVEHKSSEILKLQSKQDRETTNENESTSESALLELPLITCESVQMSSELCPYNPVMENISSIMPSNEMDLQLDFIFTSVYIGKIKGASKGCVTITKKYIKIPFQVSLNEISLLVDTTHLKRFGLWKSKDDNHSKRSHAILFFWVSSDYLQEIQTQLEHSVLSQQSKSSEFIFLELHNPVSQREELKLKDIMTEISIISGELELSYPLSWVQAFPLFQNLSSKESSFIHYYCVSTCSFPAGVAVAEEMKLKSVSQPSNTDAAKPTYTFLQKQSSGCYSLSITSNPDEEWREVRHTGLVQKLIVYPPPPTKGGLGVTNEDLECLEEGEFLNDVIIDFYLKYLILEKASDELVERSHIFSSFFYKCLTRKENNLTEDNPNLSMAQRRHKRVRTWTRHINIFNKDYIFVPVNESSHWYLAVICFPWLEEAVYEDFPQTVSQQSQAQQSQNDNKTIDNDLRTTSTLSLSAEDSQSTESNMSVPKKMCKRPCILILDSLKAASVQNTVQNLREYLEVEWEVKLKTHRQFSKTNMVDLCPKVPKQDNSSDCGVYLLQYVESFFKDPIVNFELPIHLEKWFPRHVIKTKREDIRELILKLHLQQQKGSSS

## Cc1ccccc1CSCC(=O)NC(=O)NCc1ccco1
[1]
  IC50: 9.27 µM (active)
[2]
  IC50: 10.4 µM (active)

## COc1cccc(CNC(=O)CSCc2cnn(-c3ccccc3)c2-n2cccc2)c1
[3]
  EC50: 3.66 µM (active)

## Cc1cc(N2CCC(C(=O)Nc3ccc(F)cc3)CC2)nc(-c2ccccc2)n1
[3]
  EC50: 4.26 µM (active)

## COc1ccccc1CNC(=O)CCNS(=O)(=O)c1ccc2[nH]c(=O)oc2c1
[4]
  EC50: 45.1 µM (active)
[5]
  IC50: 27.5 µM (active)
[6]
  IC50: 11.4 µM (active)

## CCn1c(CNc2ccc(Cl)cc2)nnc1SCC(=O)OC1CCCCC1
[3]
  EC50: 2.56 µM (active)

## FC(F)(F)c1cc(C(F)(F)F)c2ccc(Oc3ccccc3)nc2n1
[3]
  EC50: 4.65 µM (active)

## CCCCCC(=O)N1C[C@H](O)[C@@H](n2cc(-c3ccc(F)cc3)nn2)C[C@@H]1c1ccc(Cl)cc1
[7]
  CC50: > 25 µM (active)

## COC(=O)c1scc(S(=O)(=O)C(C)C)c1N/N=C(\C#N)C(=O)c1ccc(Cl)cc1
[8]
  IC50: > 20 µM (inactive)
[9]
  EC50: 2.17 µM (active)
[10]
  IC50: > 20 µM (inactive)
[11]
  IC50: > 20 µM (inactive)

## COc1ccc(NCc2nnc(SCC(=O)Nc3nc(-c4ccccc4)cs3)n2-c2ccccc2)cc1
[12]
  EC50: 2.54 µM (active)
[13]
  EC50: 2.78 µM (active)
[14]
  AC50: 6.62 µM (active)
[7]
  CC50: 8.35 µM (active)

## O=C(Nc1ccc2ccccc2c1)c1cccc(F)c1
[15]
  IC50: 18.3 µM (active)
[16]
  IC50: > 100 µM (inactive)
[17]
  IC50: 5.72 µM (active)
[18]
  IC50: 4.43 µM (active)

## Cc1ccc(S(=O)(=O)Nc2ccc3nc(-c4cccn4C)[nH]c3c2)cc1
[3]
  EC50: 5.6 µM (active)
